What was measured:
Spodoptera littoralis = experiment: Activity against Spodoptera littoralis (Egyptian cotton leaf worm); assay type: in vivo; details: foliar, 72 h, application rate of 200 ppm, sprayed cotton leaf discs, L1 larvae, 3 days after infestation, read-out: control (mortality, anti-feeding effect, or growth inhibition)
Procedure: Cotton leaf discs were placed onto agar in 24-well microtiter plates and sprayed with aqueous test solutions prepared from 10′000 ppm DMSO stock solutions. After drying the leaf discs were infested with five L1 larvae. The samples were assessed for mortality, anti-feeding effect, and growth inhibition in comparison to untreated samples 3 days after infestation. Control of Spodoptera littoralis by a test sample is given when at least one of the categories mortality, anti-feedant effect, and growth inhibition is higher than the untreated sample.

[1] = tested on: Frankliniella occidentalis; experiment: Activity against Frankliniella occidentalis (western flower thrips); assay type: in vivo; details: foliar, 168 h, application rate of 200 ppm, sprayed sunflower leaf discs, population of mixed ages, 7 days after infestation
Procedure: (§1) Sunflower leaf discs were placed on agar in 24-well microtiter plates and sprayed with aqueous test solutions prepared from 10′000 DMSO stock solutions. After drying the leaf discs were infested with a Frankliniella population of mixed ages. The samples were assessed for mortality 7 days after infestation.

Myzus persicae [2] = experiment: Activity against Myzus persicae (green peach aphid), roots of pea seedlings in test solution; assay type: in vivo; details: 144 h, test rate of 24 ppm, roots of infested pea seedlings in test solution, 6 days
Procedure: Roots of pea seedlings infested with an aphid population of mixed ages were placed directly in the aqueous test solutions prepared from 10′000 DMSO stock solutions. The samples were assessed for mortality 6 days after placing seedlings in test solutions.

Bemisia tabaci = experiment: Activity against Bemisia tabaci (cotton white fly); assay type: in vivo; details: foliar, 144 h, application rate of 200 ppm, sprayed cotton leaf discs, adult white flies, 6 days after incubation
Procedure: Cotton leaf discs were placed on agar in 24-well microtiter plates and sprayed with aqueous test solutions prepared from 10′000 ppm DMSO stock solutions. After drying the leaf discs were infested with adult white flies. The samples were checked for mortality 6 days after incubation.

Plutella xylostella = experiment: Activity against Plutella xylostella (diamond back moth), artificial diet; assay type: in vivo; details: 120 h, application rate of 200 ppm, L2 larvae on artificial diet, 5 days after infestation, read-out: effect in at least one of the two categories (mortality or growth inhibition)
Procedure: (§2) 24-well microtiter plates with artificial diet were treated with aqueous test solutions prepared from 10′000 ppm DMSO stock solutions by pipetting. After drying, the plates were infested with L2 larvae (10 to 15 per well). The samples were assessed for mortality and growth inhibition in comparison to untreated samples 5 days after infestation.

Euschistus heros = experiment: Activity against Euschistus heros (neotropical brown stink bug); assay type: in vivo; details: 120 h, application rate of 200 ppm, sprayed soybean leaf, N-2 nymphs, 5 days after infestation, read-out: effect in at least one of the two categories (mortality or growth inhibition)
Procedure: Soybean leaf on agar in 24-well microtiter plates were sprayed with aqueous test solutions prepared from 10′000 ppm DMSO stock solutions. After drying the leaf were infested with N-2 nymphs. The samples were assessed for mortality and growth inhibition in comparison to untreated samples 5 days after infestation.

Myzus persicae [3] = experiment: Activity against Myzus persicae (green peach aphid), sprayed sunflower leaf discs; assay type: in vivo; details: foliar, 144 h, application rate of 200 ppm, aphid population of mixed ages, 6 days after infestation
Procedure: Sunflower leaf discs were placed on agar in a 24-well microtiter plate and sprayed with aqueous test solutions prepared from 10′000 ppm DMSO stock solutions. After drying, the leaf discs were infested with an aphid population of mixed ages. The samples were assessed for mortality 6 days after infestation.

Diabrotica Balteata = experiment: Activity against Diabrotica balteata (corn root worm); assay type: in vivo; details: 96 h, application rate of 200 ppm, sprayed maize sprouts, L2 larvae, 4 days after infestation, read-out: effect in at least one of the two categories (mortality or growth inhibition)
Procedure: as §2, with “Maize sprouts placed onto an agar layer in 24-well” for “24-well”, “plates” for “plates with artificial diet”, “spraying.” for “pipetting.”, “(6” for “(10”, “10” for “15”, “4” for “5”

Thrips tabaci = experiment: Activity against Thrips tabaci (onion thrips); assay type: in vivo; details: foliar, 144 h, application rate of 200 ppm, sprayed sunflower leaf discs, thrips population of mixed ages, 6 days after infestation
Procedure: as §1, with “10′000 ppm” for “10′000”, “thrips” for “Frankliniella”, “6” for “7”

SMILES	melting point [°C]	percent control (mortality, anti-feedant effect or growth inhibition) at 200 ppm (Spodoptera littoralis) [%]	mortality at 200 ppm [1] [%]	mortality at 24 ppm (Myzus persicae [2]) [%]	mortality at 200 ppm (Bemisia tabaci) [%]	percent effect (mortality or growth inhibition) at 200 ppm (Plutella xylostella) [%]	percent effect (mortality or growth inhibition) at 200 ppm (Euschistus heros) [%]	mortality at 200 ppm (Myzus persicae [3]) [%]	percent effect (mortality or growth inhibition) at 200 ppm (Diabrotica Balteata) [%]	mortality at 200 ppm (Thrips tabaci) [%]
CCS(=O)(=O)c1cc(C(=O)N=S(C)(=O)CC)cnc1-n1cc2cnc(C(F)(F)F)cc2n1 (stereo not shown) [Compound P25, N-(ethyl-methyl-oxo-λ^6-sulfanylidene)-5-ethylsulfonyl-6-[6-(trifluoromethyl)pyrazolo[4,3-c]pyridin-2-yl]pyridine-3-carboxamide]	216 to 219									
CCS(=O)(=O)c1cc(C(=O)N=S(=O)(CC)CC)cnc1-n1cc2cnc(C(F)(F)F)cc2n1 [Compound P26, N-[diethyl(oxo)-λ^6-sulfanylidene]-5-ethylsulfonyl-6-[6-(trifluoromethyl)pyrazolo[4,3-c]pyridin-2-yl]pyridine-3-carboxamide]	185 to 189									
CCS(=O)(=O)c1cc(C(=O)N=S(C)(C)=O)cnc1-c1nc2cc(C(F)(F)F)cnc2n1C [Compound P14, N-[dimethyl(oxo)-λ^6-sulfanylidene]-5-ethylsulfonyl-6-[3-methyl-6-(trifluoromethyl)imidazo[4,5-b]pyridin-2-yl]pyridine-3-carboxamide]		≥ 80	≥ 80	≥ 80	≥ 80	≥ 80	≥ 80	≥ 80	≥ 80	
CCS(=O)(=O)c1cc(C(=O)N=S(C)(C)=O)cnc1-c1cn2cnc(C(F)(F)F)cc2n1 [Compound P4, N-[dimethyl(oxo)-λ^6-sulfanylidene]-5-ethylsulfonyl-6-[7-(trifluoromethyl)imidazo[1,2-c]pyrimidin-2-yl]pyridine-3-carboxamide]		≥ 80	≥ 80	≥ 80	≥ 80	≥ 80	≥ 80	≥ 80	≥ 80	
CCS(=O)(=O)c1cc(C(=O)N=S(C)(=O)CC)cnc1-c1nc2cc(C(F)(F)F)ncc2n1C (stereo not shown) [Compound P8, N-(ethyl-methyl-oxo-λ^6-sulfanylidene)-5-ethylsulfonyl-6-[3-methyl-6-(trifluoromethyl)imidazo[4,5-c]pyridin-2-yl]pyridine-3-carboxamide]		≥ 80	≥ 80	≥ 80	≥ 80	≥ 80	≥ 80	≥ 80	≥ 80	
CCS(=O)(=O)c1cc(C(=O)N=S2(=O)CCC2)cnc1-c1cn2cnc(C(F)(F)F)cc2n1 [Compound P13, 5-ethylsulfonyl-N-(1-oxothietan-1-ylidene)-6-[7-(trifluoromethyl)imidazo[1,2-c]pyrimidin-2-yl]pyridine-3-carboxamide]		≥ 80		≥ 80		≥ 80	≥ 80	≥ 80	≥ 80	
CCS(=O)(=O)c1cc(C(=O)N=S(C)(C)=O)cnc1-c1nc2cc(C(F)(F)F)ncc2n1C [Compound P1, N-[dimethyl(oxo)-λ^6-sulfanylidene]-5-ethylsulfonyl-6-[3-methyl-6-(trifluoromethyl)imidazo[4,5-c]pyridin-2-yl]pyridine-3-carboxamide]			≥ 80	≥ 80	≥ 80	≥ 80	≥ 80	≥ 80	≥ 80	≥ 80
CCS(=O)(=O)c1cc(C(=O)N=S(C)(=O)CC)cnc1-c1nc2cc(C(F)(F)F)cnc2n1C (stereo not shown) [Compound P15, N-(ethyl-methyl-oxo-λ^6-sulfanylidene)-5-ethylsulfonyl-6-[3-methyl-6-(trifluoromethyl)imidazo[4,5-b]pyridin-2-yl]pyridine-3-carboxamide]		≥ 80	≥ 80	≥ 80	≥ 80	≥ 80	≥ 80	≥ 80	≥ 80	
CCS(=O)(=O)c1cc(C(=O)N=S2(=O)CCC2)cnc1-c1nc2cc(C(F)(F)F)cnc2n1C [Compound P16, 5-ethylsulfonyl-6-[3-methyl-6-(trifluoromethyl)imidazo[4,5-b]pyridin-2-yl]-N-(1-oxothietan-1-ylidene)pyridine-3-carboxamide]		≥ 80		≥ 80	≥ 80	≥ 80	≥ 80	≥ 80	≥ 80	

— US10894792B2, “Pesticidally active heterocyclic derivatives with sulfur containing substituents” (SYNGENTA PARTICIPATIONS AG, priority 2017, dated 2021)
